Test results from patent EP0726261A1, “Herbidical 1,2,4 thiadiazoles” (American Cyanamid Company, priority 1995, dated 1996).

Assays:
Assay type in all cases: in vivo
[1] = system: Glycine max; assay: Herbicidal activity, preemergence test (Example 66); set-up: key: A rating of 0 indicates growth as untreated control; a rating of 9 indicates death; settings: pre; 1000 g/ha; assessed visually twenty days after spraying
Method: (§1) To evaluate their herbicidal activity, compounds according to the invention are tested using a representative range of plants: ZEAMX Zea mays ORYSA Oryza sativa GLXMA Glycine max BEAVA Beta vulgaris LIUUT Linum usitatissimum AVEFA Avena fatua ECHCG Echinochloa crus-galli SINAL Sinapsis alba
(§2) The tests fall into two categories, preemergence and postemergence. The preemergence tests involve spraying a liquid formulation of the compound onto the soil in which the seeds of the plant species mentioned above have recently been sown. The postemergence tests involve spraying a liquid formulation of the compound onto seedling plants of the above species.
(§3) The soil used in the tests is a prepared horticultural loam.
(§4) The formulations used in the tests are prepared from solutions of the test compounds in acetone containing 0.4% by weight of an alkylphenol/ethylene oxide condensate available under the trademark TRITON X-155. These acetone solutions are diluted with water and the resulting formulations applied at dosage levels corresponding to 1000 g of active material per hectare in a volume equivalent to 900 litres per hectare.
(§5) In the preemergence tests, untreated sown soil, and in the postemergence tests, untreated soil bearing seedling plants, are used as controls.
(§6) The herbicidal effects of the test compounds are assessed visually twenty days after spraying the foliage and the soil and are recorded on a 0-9 scale. A rating of 0 indicates growth as untreated control, a rating of 9 indicates death. An increase of 1 unit on the linear scale approximates to an 11% increase in the level of effect.

[2] = system: Oryza sativa; assay: as above; set-up: key: A rating of 0 indicates growth as untreated control; a rating of 9 indicates death; settings: pre; 1000 g/ha; assessed visually twenty days after spraying
Method: as §1, §2, §3, §4, §5, §6

[3] = system: Sinapsis alba; assay: as above; set-up: key: A rating of 0 indicates growth as untreated control; a rating of 9 indicates death; settings: pre; 1000 g/ha; assessed visually twenty days after spraying
Method: as §1, §2, §3, §4, §5, §6

[4] = system: Echinochloa crus-galli; assay: as above; set-up: key: A rating of 0 indicates growth as untreated control; a rating of 9 indicates death; settings: pre; 1000 g/ha; assessed visually twenty days after spraying
Method: as §1, §2, §3, §4, §5, §6

[5] = system: Linum usitatissimum; assay: as above; set-up: key: A rating of 0 indicates growth as untreated control; a rating of 9 indicates death; settings: pre; 1000 g/ha; assessed visually twenty days after spraying
Method: as §1, §2, §3, §4, §5, §6

[6] = system: Zea mays; assay: as above; set-up: key: A rating of 0 indicates growth as untreated control; a rating of 9 indicates death; settings: pre; 1000 g/ha; assessed visually twenty days after spraying
Method: as §1, §2, §3, §4, §5, §6

[7] = system: Avena fatua; assay: as above; set-up: key: A rating of 0 indicates growth as untreated control; a rating of 9 indicates death; settings: pre; 1000 g/ha; assessed visually twenty days after spraying
Method: as §1, §2, §3, §4, §5, §6

[8] = system: Beta vulgaris; assay: as above; set-up: key: A rating of 0 indicates growth as untreated control; a rating of 9 indicates death; settings: pre; 1000 g/ha; assessed visually twenty days after spraying
Method: as §1, §2, §3, §4, §5, §6

[9] = system: Glycine max; assay: Herbicidal activity, postemergence test (Example 66); settings: post; 1000 g/ha; assessed visually twenty days after spraying
Method: as §1, §2, §3, §4, §5, §6

[10] = system: Oryza sativa; assay: as above; set-up: key: A rating of 0 indicates growth as untreated control; a rating of 9 indicates death; settings: post; 1000 g/ha; assessed visually twenty days after spraying
Method: as §1, §2, §3, §4, §5, §6

[11] = system: Sinapsis alba; assay: as above; set-up: key: A rating of 0 indicates growth as untreated control; a rating of 9 indicates death; settings: post; 1000 g/ha; assessed visually twenty days after spraying
Method: as §1, §2, §3, §4, §5, §6

[12] = system: Echinochloa crus-galli; assay: as above; set-up: key: A rating of 0 indicates growth as untreated control; a rating of 9 indicates death; settings: post; 1000 g/ha; assessed visually twenty days after spraying
Method: as §1, §2, §3, §4, §5, §6

[13] = system: Linum usitatissimum; assay: as above; set-up: key: A rating of 0 indicates growth as untreated control; a rating of 9 indicates death; settings: post; 1000 g/ha; assessed visually twenty days after spraying
Method: as §1, §2, §3, §4, §5, §6

[14] = system: Zea mays; assay: as above; set-up: key: A rating of 0 indicates growth as untreated control; a rating of 9 indicates death; settings: post; 1000 g/ha; assessed visually twenty days after spraying
Method: as §1, §2, §3, §4, §5, §6

[15] = system: Avena fatua; assay: as above; set-up: key: A rating of 0 indicates growth as untreated control; a rating of 9 indicates death; settings: post; 1000 g/ha; assessed visually twenty days after spraying
Method: as §1, §2, §3, §4, §5, §6

[16] = system: Beta vulgaris; assay: as above; set-up: key: A rating of 0 indicates growth as untreated control; a rating of 9 indicates death; settings: post; 1000 g/ha; assessed visually twenty days after spraying
Method: as §1, §2, §3, §4, §5, §6

[17] = system: Hordeum vulgare; assay: Preemergence herbicidal activity (Example 67); settings: pre, 800 g/ha
Method in brief: (§7)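 Soil surface of seeded cups sprayed with compound (800g/ha, 400 L/ha volume) from acetone/0.5% TRITON X-155 solutions diluted in water. Herbicidal effect scored on a rating scale roughly 1-3 weeks later, plants held in greenhouse.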

[18] = system: Alopecurus myosuroides; assay: Preemergence herbicidal activity (Example 67); settings: pre, 800 g/ha
Method in brief: as §7

[19] = system: Setaria viridis; assay: Preemergence herbicidal activity (Example 67); settings: pre, 800 g/ha
Method in brief: as §7

[20] = system: Galium aparine; assay: Preemergence herbicidal activity (Example 67); settings: pre, 800 g/ha
Method in brief: as §7

[21] = system: Chenopodium album; assay: Preemergence herbicidal activity (Example 67); settings: pre, 800 g/ha
Method in brief: as §7

[22] = system: Veronica persica; assay: Preemergence herbicidal activity (Example 67); settings: pre, 800 g/ha
Method in brief: as §7

[23] = system: Helianthus annuus; assay: Preemergence herbicidal activity (Example 67); settings: pre, 800 g/ha
Method in brief: as §7

[24] = system: Amaranthus retroflexus; assay: Preemergence herbicidal activity (Example 67); settings: pre, 800 g/ha
Method in brief: as §7

[25] = system: Zea mays; assay: Preemergence herbicidal activity (Example 67); settings: pre, 800 g/ha
Method in brief: as §7

[26] = system: Ipomoea hederacea; assay: Preemergence herbicidal activity (Example 67); settings: pre, 800 g/ha
Method in brief: as §7

[27] = system: Abutilon theophrasti; assay: Preemergence herbicidal activity (Example 67); settings: pre, 800 g/ha
Method in brief: as §7

[28] = system: Triticum aestivum; assay: Preemergence herbicidal activity (Example 67); settings: pre, 800 g/ha
Method in brief: as §7

[29] = system: Galium aparine; assay: Postemergence herbicidal activity (Example 67); settings: pos, 800 g/ha
Method in brief: (§8)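 Rating followed 10–21 days of greenhouse growth after treatment. Treatment was a single spray at a dose of 800 g/ha (400 L/ha spray volume) applied to plants 3–6 weeks old, using a water-diluted acetone solution containing 0.5% Triton X-155.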

[30] = system: Setaria viridis; assay: Postemergence herbicidal activity (Example 67); settings: pos, 800 g/ha
Method in brief: as §8

[31] = system: Chenopodium album; assay: Postemergence herbicidal activity (Example 67); settings: pos, 800 g/ha
Method in brief: as §8

[32] = system: Veronica persica; assay: Postemergence herbicidal activity (Example 67); settings: pos, 800 g/ha
Method in brief: as §8

[33] = system: Helianthus annuus; assay: Postemergence herbicidal activity (Example 67); settings: pos, 800 g/ha
Method in brief: as §8

[34] = system: Alopecurus myosuroides; assay: Postemergence herbicidal activity (Example 67); settings: pos, 800 g/ha
Method in brief: as §8

[35] = system: Amaranthus retroflexus; assay: Postemergence herbicidal activity (Example 67); settings: pos, 800 g/ha
Method in brief: as §8

[36] = system: Triticum aestivum; assay: Postemergence herbicidal activity (Example 67); settings: pos, 800 g/ha
Method in brief: as §8

[37] = system: Hordeum vulgare; assay: Postemergence herbicidal activity (Example 67); settings: pos, 800 g/ha
Method in brief: as §8

[38] = system: Zea mays; assay: Postemergence herbicidal activity (Example 67); settings: pos, 800 g/ha
Method in brief: as §8

[39] = system: Ipomoea hederacea; assay: Postemergence herbicidal activity (Example 67); settings: pos, 800 g/ha
Method in brief: as §8

[40] = system: Abutilon theophrasti; assay: Postemergence herbicidal activity (Example 67); settings: pos, 800 g/ha
Method in brief: as §8

CC(C)c1nsc(C(=O)NC(C)c2cccs2)n1 (racemic) [Example 1, (R/S)-3-Isopropyl-[1,2,4]thiadiazole-5-carboxylic acid, [1-(2-thienyl)ethyl]amide]
herbicidal effects on a 0-9 scale, GLXMA [1]: 0 | herbicidal effects on a 0-9 scale, ORYSA [2]: 0 | herbicidal effects on a 0-9 scale, SINAL [3]: 7 | herbicidal effects on a 0-9 scale, ECHCG [4]: 5 | herbicidal effects on a 0-9 scale, LIUUT [5]: 2 | herbicidal effects on a 0-9 scale, ZEAMX [6]: 0 | herbicidal effects on a 0-9 scale, AVEFA [7]: 2 | herbicidal effects on a 0-9 scale, BEAVA [8]: 7 | herbicidal effects on a 0-9 scale, GLXMA [9]: 6 | herbicidal effects on a 0-9 scale, ORYSA [10]: 0 | herbicidal effects on a 0-9 scale, SINAL [11]: 9 | herbicidal effects on a 0-9 scale, ECHCG [12]: 9 | herbicidal effects on a 0-9 scale, LIUUT [13]: 9 | herbicidal effects on a 0-9 scale, ZEAMX [14]: 0 | herbicidal effects on a 0-9 scale, AVEFA [15]: 5 | herbicidal effects on a 0-9 scale, BEAVA [16]: 9

CC(NC(=O)c1nc(-c2ccccc2)ns1)c1cccs1 (racemic) [Example 4, (R/S)-3-Phenyl-[1,2,4]thiadiazole-5-carboxylic acid, [1-(2-thienyl)ethyl]amide]
herbicidal effects on a 0-9 scale, GLXMA [1]: 0 | herbicidal effects on a 0-9 scale, ORYSA [2]: 0 | herbicidal effects on a 0-9 scale, SINAL [3]: 0 | herbicidal effects on a 0-9 scale, ECHCG [4]: 0 | herbicidal effects on a 0-9 scale, LIUUT [5]: 0 | herbicidal effects on a 0-9 scale, ZEAMX [6]: 0 | herbicidal effects on a 0-9 scale, AVEFA [7]: 0 | herbicidal effects on a 0-9 scale, BEAVA [8]: 0 | herbicidal effects on a 0-9 scale, GLXMA [9]: 5 | herbicidal effects on a 0-9 scale, ORYSA [10]: 0 | herbicidal effects on a 0-9 scale, SINAL [11]: 8 | herbicidal effects on a 0-9 scale, ECHCG [12]: 8 | herbicidal effects on a 0-9 scale, LIUUT [13]: 7 | herbicidal effects on a 0-9 scale, ZEAMX [14]: 0 | herbicidal effects on a 0-9 scale, AVEFA [15]: 5 | herbicidal effects on a 0-9 scale, BEAVA [16]: 8

O=C(Nc1ccc(F)cc1F)c1nsc(-c2cccc(C(F)(F)F)c2)n1 [Example 62]
HOR VW rating [17]: 0 | ALO MY rating [18]: 3 (16-29%) | SET VI rating [19]: 0 | GAL AP rating [20]: 0 | CHE AL rating [21]: 0 | VER PE rating [22]: 0 | HEL AN rating [23]: 0 | AMA RE rating [24]: 0 | ZEA MX rating [25]: 0 | IPO HE rating [26]: 3 (16-29%) | ABU TH rating [27]: 1 (1-5%) | TRZ AW rating [28]: 0 | GAL AP rating [29]: 0 | SET VI rating [30]: 5 (45-64%) | CHE AL rating [31]: 1 (1-5%) | VER PE rating [32]: 0 | HEL AN rating [33]: 0 | ALO MY rating [34]: 0 | AMA RE rating [35]: 0 | TRZ AW rating [36]: 1 (1-5%) | HOR VW rating [37]: 0 | ZEA MX rating [38]: 1 (1-5%) | IPO HE rating [39]: 1 (1-5%) | ABU TH rating [40]: 0
